Literature values, collected in patent publication US20120101089A1, “Anti-Emetic Substance” (priority 2010, published 2012).
“Also recorded” adds a separate entry of the source. Read-outs that look alike come from different tables or passages of the source.

Key:
[1] = for Adverse Effect: common adverse effects associated with single agents, listed per class; for sedation, droperidol versus ondansetron groups: i.v. ondansetron 4 mg, droperidol 20 μg/kg, outpatient gynaecological laparoscopy
[2] = not given; remark: listed apart in the source
[3] = for prevention of PONV symptoms: i.v. tropisetron 5 mg, droperidol 1.25 mg at the end of gynaecological surgery (Purhonen); for prevention of PONV versus placebo: ephedrine 0.5 mg/kg i.m., propofol […] i.v., laparoscopic surgery; for PONV prevention versus comparators: major gynecological surgery; for PONV prevention versus metoclopramide 10 mg or placebo: granisetron 3 mg, tropisetron 5 mg before start of anesthesia (Naguib)
[4] = 15 mg and 0.15 mg/kg i.v. immediately after umbilical cord clamped; lidocaine, morphine epidural
[5] = for optimal dose for PONV treatment: children older than 2 years, intravenously
[6] = not given; remark: listed apart in the source

SMILES: CCN(CC)C(=O)C1CN2CCc3cc(OC)c(OC)cc3C2CC1OC(C)=O (centres unmarked) [benzquinamide, Benzquinamide]
- Adverse Effect [1]: Sedation, EPS, restlessness,

SMILES: CN(C)CCCN1c2ccccc2Sc2ccc(Cl)cc21 [chlorpromazine]
- Adverse Effect [1]: Sedation, EPS, hypotension,

SMILES: CN1CCN(C(c2ccccc2)c2ccccc2)CC1 [cyclizine, Cyclizine]
- Adverse Effect [1]: Sedation, dry mouth,

SMILES: CS(=O)(=O)O.O=C(OC1C[C@@H]2CC3C[C@H](C1)N2CC3=O)c1c[nH]c2ccccc12 (some centres unmarked) [dolasetron mesylate]
- patients with some emesis control (single-arm study): 65%

SMILES: O=C(O[C@@H]1C[C@@H]2C[C@H]3C[C@H](C1)N2CC3=O)c1c[nH]c2ccccc12 [dolasetron, Dolasetron]
- clearance and half-life in children compared with young healthy adult volunteers ([2]; children): increased clearance and a shorter half-life
- elimination half-life ([2]; parent compound): 9 min

SMILES: O=C(CCCN1CC=C(n2c(=O)[nH]c3ccccc32)CC1)c1ccc(F)cc1 [droperidol]
- sedation or other adverse effects ([1]; 1.25 mg dose (Fortney)): no increase in sedation or other adverse effects
- Adverse Effect [1]: Sedation, EPS,
- adverse effects (dystonic reactions, EPS, sedation) ([1]; i.v. 0.625 mg and 1.25 mg): few adverse effects
- sedation or other adverse effects ([1]; i.v. 0.625 mg or 1.25 mg, outpatient gynecological operations): no increase in sedation or other adverse effects
- anxiety and drowsiness ([1]; i.v. 1.25 mg at the end of gynaecological surgery (Purhonen)): increase in anxiety and drowsiness
- adverse effects versus studies with dose less than 2.5 mg ([1]; i.v. 2.5 mg): more adverse effects (i.e. sedation, dizziness)
- sedation, droperidol versus ondansetron groups [1]: no difference
- duration of action / effect ([2]; following administration, route not stated): ≤ 24 h
- prevention of PONV ([3]; 5 μg/kg i.v. 1 hour before end of anesthesia, children 11 to 15 years): effective in preventing PONV
- best anti-emetic effectiveness among groups ([3]; 1.25 mg dose (Fortney)): best anti-emetic effectiveness
- prevention of PONV versus i.v. droperidol 1.25 mg or ondansetron 4 mg ([3]; i.v. 0.625 mg at start of anesthesia, outpatient gynecological operations): as effective
- PONV prevention, low versus higher dose ([3]; i.v. 0.625 mg immediately following intubation): as effective as intravenous droperidol 1.25 mg
- prevention of PONV versus comparators ([3]; i.v. 1.25 mg before end of general anesthesia, female patients, elective orthopaedic surgery): significantly superior to intravenous metoclopromide 10 mg and a saline placebo
- prevention of PONV versus comparators ([3]; i.v. 1.25 mg immediately before end of anesthesia, day-stay and major gynaecological surgery): superior to intravenous metoclopramide 10 mg, intravenous domperidone 5 mg and an intravenous saline placebo
- patients with no emesis versus i.v. ondansetron 8 mg ([3]; i.v. 2.5 mg, women, inpatient minor gynaecological surgery): more patients
- prevention of PONV symptoms [3]: failed to prevent any PONV symptoms
- anti-emetic effectiveness versus haloperidol ([3]; intramuscular 5 mg): equivalent anti-emetic effectiveness to intramuscular haloperidol 2 mg

SMILES: CN[C@@H](C)[C@H](O)c1ccccc1 [ephedrine]
- prevention of PONV versus placebo [3]: more effective, with no haemodynamic changes, than placebo

SMILES: CN1C2CCCC1CC(NC(=O)c1nn(C)c3ccccc13)C2 (centres unmarked) [granisetron, Granisetron]
- Adverse Effect [1]: Headache, dizziness
- PONV prevention versus comparators ([3]; 40 μg/kg immediately prior to induction, women during menstruation (Fujii)): more effective than droperidol 25 μg/kg or metoclopramide 0.2 mg/kg
- optimal dose for PONV prevention ([3]; adults and children, intravenous, other studies): 0.04 mg/kg
- optimum effective prophylactic dose ([3]; adults, i.v. immediately before the start of anesthesia, 0.1, 1 and 3 mg compared): 1 mg
- PONV prevention versus comparators ([3]; i.v. 2.5 mg immediately prior to anesthesia, history of postoperative emesis and motion sickness): more effective than droperidol 1.25 mg or metoclopramide 10 mg
- PONV prevention versus metoclopramide 10 mg or placebo ([3]; i.v. ondansetron 4 mg): significantly greater anti-emetic effectiveness than metoclopramide or placebo

SMILES: O=C(CCCN1CCC(O)(c2ccc(Cl)cc2)CC1)c1ccc(F)cc1 [haloperidol]
- Adverse Effect [1]: Sedation, EPS,
- duration of action ([2]; intramuscular): approximately 12 hours
- onset time / onset of action ([2]; intramuscular): approximately 30 minutes
- effectiveness in PONV ([3]; 7 μg/kg i.v. and 0.5 to 4.0 mg i.m. for prevention, 1 mg i.m. for treatment): effective in PONV, with little sedative effect

SMILES: O=C(OC1CC2CC3CC(C1)N2CC3O)c1c[nH]c2ccccc12 (centres unmarked) [hydrodolasetron]
- share of the anti-emetic effect ([2]; active metabolite of dolasetron): 87%
- mean half-life ([2]; intravenous form): ~8.3 h
- mean half-life ([2]; oral form): approximately 7.1 hours

SMILES: OCCOCCN1CCN(C(c2ccccc2)c2ccc(Cl)cc2)CC1 (centres unmarked) [hydroxyzine, Hydroxyzine]
- Adverse Effect [1]: Sedation, dry mouth,
- incidence of PONV versus droperidol ([3]; i.m. 100 mg after induction of anesthesia, non-premedicated patients): decrease the incidence of PONV more effectively than intramuscular droperidol 2.5 mg

SMILES: CCN(CC)CCNC(=O)c1cc(Cl)c(N)cc1OC [metoclopramide, Metoclopramide]
- incidence of nausea and vomiting [4]: effectively reduce the incidence of nausea and vomiting
- treatment of PONV versus comparators ([5]; 10 mg intravenously): as effective as intravenous droperidol 1.25 mg and more effective than intravenous propofol 10 mg
- effect on emetic effects of opioids ([6]; additional 10 to 20 mg i.m. at the end of the operation): reduced the emetic effects of pethidine, but had less effect when morphine was given
- effect on pre-anaesthetic emetic effects of pethidine ([6]; preoperative 10 and 20 mg intramuscularly): abolished the pre-anaesthetic emetic effects of pethidine
- Adverse Effect [1]: Sedation, EPS, restlessness,

SMILES: Cc1ncc2n1-c1ccc(Cl)cc1C(c1ccccc1F)=NC2 [midazolam, Midazolam]
- prevention of vomiting after tonsillectomy ([3]; 75 μg/kg i.v. after induction of anesthesia, children): effective for the prevention of vomiting

SMILES: Cc1nccn1CC1CCc2c(c3ccccc3n2C)C1=O (centres unmarked) [ondansetron, Ondansetron]
- control of vomiting and nausea during subsequent days of chemotherapy (single agent (Barbounis)): progressive decline
- cases in which effective (single agent, day 1 of chemotherapy administration (Barbounis)): about 76%
- optimal dose for PONV treatment ([5]; <40 kg): 0.1 mg/kg
- optimal dose for PONV treatment ([5]; >40 kg): 4 mg
- treatment of PONV versus comparators ([5]; i.v. 4 mg, following gynecological laparoscopy (Polati)): better efficacy than intravenous metoclopramide 10 mg or placebo
- control of PONV by repeat dose ([5]; repeat i.v. 4 mg in PACU after failed prophylaxis with i.v. 4 mg (Kovac)): does not appear to offer additional control of PONV
- incidence of adverse events after additional dose ([1]; additional 4 mg postoperatively): did not result in an increased incidence of adverse events
- Adverse Effect [1]: Headache, dizziness
- sedation, droperidol versus ondansetron groups [1]: no difference
- optimal effective dose for PONV ([3]; adults, intravenously at the start of anesthesia): 4 mg
- optimal effective dose for PONV ([3]; adults, orally 1 to 2 hours before anesthesia): 8 mg
- optimal dose for PONV prevention ([3]; children older than 2 years, orally): 0.1 mg/kg
- prevention of vomiting versus comparators ([3]; i.v. 0.1 mg/kg, children undergoing adenotonsillectomy): more effective in preventing vomiting than dimenhydrimate 0.5 mg/kg or placebo
- efficacy by timing of administration ([3]; i.v. 4 mg, end of surgery versus before induction of anesthesia): significantly better when administered at the end of surgery
- patients with emesis versus i.v. metoclopramide 10 mg or droperidol 0.625 mg ([3]; i.v. 8 mg prior to anesthesia (Alon and Himmelseher)): fewer
- difference between ondansetron and dexamethasone administered alone ([3]; i.v. ondansetron 4 mg, dexamethasone 8 mg, major gynaecological surgery): No difference
- PONV prevention versus metoclopramide 10 mg or placebo ([3]; i.v. ondansetron 4 mg): significantly greater anti-emetic effectiveness than metoclopramide or placebo

SMILES: OCCN1CCN(CCCN2c3ccccc3Sc3ccc(Cl)cc32)CC1 [perphenazine]
- Adverse Effect [1]: Sedation, EPS, hypotension,
- efficacy in preventing PONV versus comparator ([3]; children after tonsillectomy, prophylactic 70 μg/kg): more effective than dexamethasone 150 μg/kg; also recorded: equally as effective as ondansetron 150 μg/kg
- emesis after tonsillectomy ([3]; paediatric patients, prophylactic i.v. 70 μg/kg): decreased emesis

SMILES: CC(CN1c2ccccc2Sc2ccccc21)N(C)C (centres unmarked) [promethazine]
- Adverse Effect [1]: Sedation, EPS, hypotension,

SMILES: CC(C)c1cccc(C(C)C)c1O [propofol]
- prevention of PONV by anesthetic used ([3]; 0.5 mg/kg i.v., outpatient laparoscopic cholecystectomy): more effective in preventing PONV after sevoflurane anesthesia than desflurane anesthesia
- plasma concentration necessary to obtain a 50% reduction in postoperative nausea ([3]; 10 mg i.v. bolus followed by infusion of 10 μg/kg/min): 343 ng/L
- overall occurrence of PONV versus 10% Intralipid ([3]; 20-hour postoperative 0.1 ml/kg/hour infusion): less
- prevention of PONV versus placebo [3]: more effective, with no haemodynamic changes, than placebo
- effect on PONV ([3]; i.v. bolus 0.1 mg/kg followed by constant infusion of 1 mg/kg/hour): no effect on PONV
- PONV prophylaxis versus thiopentone 1.0 mg/kg ([3]; i.v. subhypnotic 0.5 mg/kg, first 6 hours after middle ear surgery): significantly better PONV prophylaxis against retching and vomiting
- prevention of PONV versus ondansetron ([3]; intraoperative intravenous, first 6 hours postoperatively): equally as effective as intravenous ondansetron 4 mg

SMILES: CN1[C@@H]2C[C@@H](OC(=O)[C@H](CO)c3ccccc3)C[C@H]1[C@@H]1O[C@@H]12 [scopolamine, Scopolamine]
- Adverse Effect [1]: Sedation, dry mouth,

SMILES: CN1[C@@H]2CC[C@H]1C[C@@H](OC(=O)c1c[nH]c3ccccc13)C2 [tropisetron, Tropisetron]
- patients with response (single agent, first study): about 80%
- optimal effective dose for treatment of PONV ([5]; intravenous, abdominal and non-abdominal surgeries (Alon)): 2 mg
- Adverse Effect [1]: Headache, dizziness
- prevention of PONV ([3]; 5 mg i.v. before start of anesthesia, breast and gynaecological surgery): effective for prevention of PONV
- PONV prevention versus metoclopramide 10 mg or placebo ([3]; i.v. ondansetron 4 mg): significantly greater anti-emetic effectiveness than metoclopramide or placebo
- prevention of PONV symptoms [3]: effectively prevented vomiting, but not nausea and retching
